# Read-outs that look alike come from different tables or passages of the source.
# Key:
# [1] = tested on: T cells; assay: T cell viability after pretreatment with CHP components; assay type: cell-based
# [2] = tested on: CD20-expressing Daudi cells; conditions: 333 ng/ml DuoBody-CD3xCD20, 4 donors
# Description: Briefly, T cells were pre-incubated with cyclophosphamide, doxorubicin, or prednisone for 16 hours and subsequently used in a cytotoxicity assay with epcoritamab and CD20-expressing Daudi cells as target cells (E: T ratio 2:1), in which cyclophosphamide, doxorubicin, or prednisone was added in the same concentration as during pre-incubation, respectively. Data are presented as percent viable target cells (CD4-CD8-CD22+), normalized to medium control (no Ab, no CHP component).
# [3] = tested on: CD20-expressing Raji-luc tumor cells; conditions: NOD-SCID mice injected with Raji-luc tumor cells and PBMCs; even in the presence of an excess of IgG1-RTX-FEAR; cited from earlier work
# [4] = tested on: primary DLBCL and follicular lymphoma patient biopsies; conditions: cited from earlier work
# [5] = tested on: relapsed or refractory (R/R) B-NHL; highly refractory large B-cell lymphoma; conditions: cited from earlier work
# [6] = T cells pre-incubated for 16 hours
# [7] = highly refractory large B-cell lymphoma, n=157
compound,measurement,setting,value
"O=P1(N(CCCl)CCCl)NCCCO1 (centres unmarked) [cyclophosphamide, 2H-1,3,2-Oxazaphosphorin-2-amine, N,N-bis(2-chloroethyl)tetrahydro-, 2-oxide]",T cell viability after pretreatment,[1],did not impact T cell viability
COc1cccc2c1C(=O)c1c(O)c3c(c(O)c1C2=O)C[C@@](O)(C(=O)CO)C[C@@H]3O[C@H]1C[C@H](N)[C@H](O)[C@H](C)O1 [doxorubicin],T cell viability after pretreatment,[1]; [6],reduction in T cell viability
"C[C@]12C=CC(=O)C=C1CC[C@@H]1[C@@H]2C(=O)C[C@@]2(C)[C@H]1CC[C@]2(O)C(=O)CO [prednisone, 17,21-dihydroxypregna-1,4-diene-3,11,20-trione]",T cell viability after pretreatment,[1]; [6],did not impact T cell viability
epcoritamab: IgG1 bispecific CD3×CD20 antibody; heavy and light chain pairs SEQ ID NOs: 24/25 (CD3ε arm) and 26/27 (CD20 arm); CAS 2134641-34-0,viable B cells left after incubation,"[2]; T cells pretreated with cyclophosphamide, FIG. 1A right panel",very low percentages of viable B cells
same,viable B cells left after incubation,"[2]; T cells pretreated with prednisone, FIG. 1C right panel",very low percentages of viable B cells
same,tumor growth in the xenograft model,[3],effectively reduce tumor growth
same,T-cell-mediated cytotoxicity,[4],induced T-cell-mediated cytotoxicity
same,complete response (CR) rate,[5]; [7],39%
same,median duration of response (DOR),[5]; [7],12 months
same,overall response rate (ORR),[5]; [7],63%
same,safety profile,[5]; in vivo,manageable safety profile

# Source: patent US20250101102A1, “BISPECIFIC ANTIBODY AGAINST CD3 AND CD20 IN COMBINATION THERAPY FOR TREATING DIFFUSE LARGE B-CELL LYMPHOMA” (GENMAB A/S, priority 2022, published 2025)
